SMILES strings stand for the structures.

For 18 molecules, IC50 results are on record in patent US11976083B2, “Inhibitors of peptidylarginine deiminases” (Gilead Sciences, Inc., priority 2020, dated 2024).

For the assay, the target named is T1, human PAD4 (Homo sapiens, UniProt Q9UM07).
T1 construct: human PAD4 (NM_012387), A2-P663, was PCR amplified; His-SUMO (N, cleaved yes); made in house; host or cells: E. coli BL21(DE3)
The assay can be described thus: In vitro PAD4 BAEE biochemical assay. Conditions: BAEE substrate 3 mM, 5 nM PAD4, 2 mM calcium chloride; geometric mean of multiple experiments. In short, it runs like this: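 Recombinant PAD4 (5 nM final) with 2 mM CaCl2 was preincubated with compound for 30 min at 25 °C in MOPS pH 7.6 buffer with DTT, then reacted with 3 mM BAEE for 2 h at 25 °C. Released ammonia was detected fluorimetrically with o-phthalaldehyde/DTT; IC50 from four-parameter fit, geometric mean of experiments.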

T1 sequence (Q9UM07 2-663): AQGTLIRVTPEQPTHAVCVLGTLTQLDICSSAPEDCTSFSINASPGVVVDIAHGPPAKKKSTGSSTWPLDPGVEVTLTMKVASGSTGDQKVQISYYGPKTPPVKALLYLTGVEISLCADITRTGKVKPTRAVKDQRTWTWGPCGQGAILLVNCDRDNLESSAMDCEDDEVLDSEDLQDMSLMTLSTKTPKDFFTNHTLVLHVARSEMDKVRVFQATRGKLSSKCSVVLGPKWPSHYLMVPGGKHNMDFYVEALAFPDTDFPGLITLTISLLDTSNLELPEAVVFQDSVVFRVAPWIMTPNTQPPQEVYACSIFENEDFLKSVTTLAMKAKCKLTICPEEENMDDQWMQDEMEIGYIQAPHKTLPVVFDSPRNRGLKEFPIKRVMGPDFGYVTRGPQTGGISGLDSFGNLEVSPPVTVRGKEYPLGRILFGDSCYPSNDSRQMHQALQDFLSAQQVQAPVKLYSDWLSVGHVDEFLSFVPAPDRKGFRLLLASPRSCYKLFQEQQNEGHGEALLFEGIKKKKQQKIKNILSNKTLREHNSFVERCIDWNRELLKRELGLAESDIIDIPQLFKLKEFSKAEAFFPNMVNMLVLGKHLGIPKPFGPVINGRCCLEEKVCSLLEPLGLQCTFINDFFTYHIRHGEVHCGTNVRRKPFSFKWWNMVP

With `COc1cc(C(=O)N2C[C@H](N)[C@@H]3CC[C@H]2C3)cc2nc(-c3cc4ccc5cc4n3CCCCCCC(C)(C)C(=O)N[C@@H]5C)n(C)c12` [Example 465, (11~{R})-17-[5-[(1~{S},4~{R},5~{R})-4-amino-2-azabicyclo[3.2.1]octane-2-carbonyl]-7-methoxy-1-methyl-benzimidazol-2-yl]-8,8,11-trimethyl-1,10-diazatricyclo[10.5.2.0^{15,18}]nonadeca-12(19),13,15(18),16-tetraen-9-one], the IC50 worked out at 23 nM.

Take `CO[C@@H]1CCN(C(=O)c2ccc3c(c2)nc(-c2cc4ccc5nc4n2CCCCC[C@@H]2C[C@H]2C(=O)N[C@@H]5C)n3C2CC2)C[C@@H]1N` [Example 691, (2~{R},5~{R},7~{R})-14-[5-[(3~{S},4~{R})-3-amino-4-methoxy-piperidine-1-carbonyl]-1-cyclopropyl-benzimidazol-2-yl]-2-methyl-3,13,19-triazatetracyclo[11.5.2.0^ {5,7}.0^{16,20}]icosa-1(19),14,16(20),17-tetraen-4-one]: the concentration for half-maximal inhibition (IC50) was 33 nM.

With `COc1cc(C(=O)N2CCC[C@@H](N)C2)cc2nc(-c3cc4ccc5nc4n3CCCCCCC(C)(C)C(=O)N[C@@H]5C)n(C3CC3)c12` [Example 230, (11~{R})-17-[5-[(3~{R})-3-aminopiperidine-1-carbonyl]-1-cyclopropyl-7-methoxy-benzimidazol-2-yl]-8,8,11-trimethyl-1,10,19-triazatricyclo[10.5.2.0^{15,18}]nonadeca-12(19),13,15(18),16-tetraen-9-one], the concentration for half-maximal inhibition (IC50) is 84 nM.

Take `COc1cc(C(=O)N2CCC[C@@H](N)C2)cc2nc(-c3cc4ccc5nc4n3CCCCCCNC(=O)c3ccccc3-5)n(C)c12` [Example 49, 17-[5-[(3~{R})-3-aminopiperidine-1-carbonyl]-7-methoxy-1-methyl-benzimidazol-2-yl]-9,16,22-triazatetracyclo[14.5.2.0^{2,7}.0^{19,23}] tricosa-1(22),2,4,6,17,19(23),20-heptaen-8-one]: the IC50 worked out at 112 nM.

As to `COc1cc(C(=O)N2CCC[C@@H](N)C2)cc2nc(-c3cc4ccc5nc4n3C[C@H]3C[C@@H]3COCCC(=O)N[C@@H]5C)n(C)c12` [Example 149, (3~{S},5~{S},12~{R})-18-[5-[(3~{R})-3-aminopiperidine-1-carbonyl]-7-methoxy-1-methyl-benzimidazol-2-yl]-12-methyl-7-oxa-1,11,20-triazatetracyclo[11.5.2.0^{3,5}.0^{16,19}] icosa-13(20),14,16(19),17-tetraen-10-one], the IC50 came to 46 nM.

`COc1cc(C(=O)N2CC[C@@H](OC)[C@@H](N)C2)cc2nc(-c3cc4ccc5nc4n3CCCCCc3cccc(F)c3C(=O)N[C@@H]5C)n(C)c12` [Example 360, (2~{R})-17-[5-[(3~{S},4~{R})-3-amino-4-methoxy-piperidine-1-carbonyl]-7-methoxy-1-methyl-benzimidazol-2-yl]-6-fluoro-2-methyl-3,16,22-triazatetracyclo[14.5.2.0^{5,10}.0^{19,23}] tricosa-1(22),5,7,9,17,19(23),20-heptaen-4-one]: the half-maximal inhibitory concentration (IC50) stood at 58 nM.

In the case of `COc1cc(C(=O)N2CC[C@@H](OC(F)F)[C@@H](N)C2)cc2nc(-c3cc4ccc5nc4n3CCCCCc3cc4ccccc4nc3C(=O)N[C@@H]5C)n(C)c12` [Example 732, (2~{R})-21-[5-[(3~{S},4~{R})-3-amino-4-(difluoromethoxy)piperidine-1-carbonyl]-7-methoxy-1-methyl-benzimidazol-2-yl]-2-methyl-3,6,20,26-tetrazapentacyclo[18.5.2.0^ {5,14}.0^{7,12}.0^{23,27}] heptacosa-1(26),5(14),6,8,10, 12,21,23(27),24-nonaen-4-one], the IC50 came to 214 nM.

`COc1cc(C(=O)N2C[C@H](N)[C@@H]3CC[C@H]2C3)cc2nc(-c3cc4ccc5nc4n3CCCCCc3c(F)ccc(F)c3C(=O)N[C@@H]5C)n(C)c12` [Example 903, (2~{R})-17-[5-[(1~{S},4~{R}, 5~{R})-4-amino-2-azabicyclo [3.2.1]octane-2-carbonyl]-7-methoxy-1-methyl-benzimidazol-2-yl]-6,9-difluoro-2-methyl-3,16,22-triazatetracyclo [14.5.2.0^{5,10}.0^{19,23}] tricosa-1(22),5(10),6,8,17, 19(23),20-heptaen-4-one]: the IC50 came out at 55 nM.

For `COc1cc(C(=O)N2C[C@H](N)[C@@H]3CC[C@H]2C3)cc2nc(-c3cc4ccc5nc4n3CCCCCOC3(CC3)C(=O)N[C@@H]5C)n(C)c12` [Example 910, (11~{R})-17-[5-[(1~{S},4~ {R},5~{R})-4-amino-2-azabicyclo [3.2.1]octane-2-carbonyl]-7-methoxy-1-methyl-benzimidazol-2-yl]-11-methyl-spiro[7-oxa-1,10,19-triazatricyclo[10.5.2.0^{15,18}]nonadeca-12(19), 13,15(18),16-tetraene-8,1′-cyclopropane]-9-one], the 50% inhibitory concentration (IC50) worked out at 49 nM.

As for `COc1cc(C(=O)N2C[C@H](N)[C@@H]3CC[C@H]2C3)cc2nc(-c3cc4ccc5nc4n3CCCCCc3ccccc3C(=O)N[C@@H]5C)n(C3CC3)c12` [Example 673, (2~{R})-17-[5-[(1~{S},4~ {R},5~{R})-4-amino-2-azabicyclo[3.2.1]octane-2-carbonyl]-1-cyclopropyl-7-methoxy-benzimidazol-2-yl]-2-methyl-3,16,22-triazatetracyclo[14.5.2.0^ {5,10}.0^{19,23}] tricosa-1(22),5(10),6,8, 17,19(23),20-heptaen-4-one], the IC50 came to 27 nM.

For the molecule `C[C@H]1NC(=O)c2nn(C)nc2CCCCCn2c(-c3nc4cc(C(=O)N[C@H]5CNCC[C@@H]5F)c(F)cc4n3C)cc3ccc1nc32` [Example 546, 2-[(2~{R})-2,7-dimethyl-4-oxo-3,6,7,8,15,21-hexazatetracyclo[13.5.2.0^ {5,9}.0^{18,22}]docosa-1(21),5,8,16,18(22), 19-hexaen-16-yl]-6-fluoro-~{N}-[(3~{S},4~{S})-4-fluoro-3-piperidyl]-1-methyl-benzimidazole-5-carboxamide], the IC50 is 59 nM.

With `C[C@H]1NC(=O)c2cccc(F)c2CCCCCn2c(-c3nc4cc(C(=O)N[C@H]5CNCC[C@@H]5F)c(F)cc4n3C)cc3ccc1nc32` [Example 352, 6-fluoro-2-[(2~{R})-9-fluoro-2-methyl-4-oxo-3,16,22-triazatetracyclo[14.5.2.0^{5,10).0^{19,23}]tricosa-1(22),5,7,9,17,19(23),20-heptaen-17-yl]-~{N}-[(3~{S),4~{S})-4-fluoro-3-piperidyl]-1-methyl-benzimidazole-5-carboxamide], the IC50 is 53 nM.

Regarding `COc1cc(C(=O)N2CCC[C@@H](N)C2)cc2nc(-c3cc4ccc5nc4n3CC(C)(C)CCCCCC(=O)N[C@@H]5C)n(C)c12` [Example 140, (11~{R})-17-[5-[(3~{R})-3-aminopiperidine-1-carbonyl]-7-methoxy-1-methyl-benzimidazol-2-yl]-3,3,11-trimethyl-1,10,19-triazatricyclo[10.5.2.0^{15,18}]nonadeca-12(19),13,15(18),16-tetraen-9-one], the IC50 is 97 nM.

As for `C[C@H]1NC(=O)[C@@H]2C[C@H]2CCCCCn2c(-c3nc4cc(C(=O)N[C@H]5CNCC[C@@H]5F)c(F)cc4n3CCC#N)cc3ccc1nc32` [Example 426, 1-(2-cyanoethyl)-6-fluoro-~{N}-[(3~{S},4~{S})-4-fluoro-3-piperidyl]-2-[(2~{R},5~{R},7~{R})-2-methyl-4-oxo-3,13,19-triazatetracyclo[11.5.2.0^{5,7}.0^{16,20}]icosa-1(19),14,16(20),17-tetraen-14-yl]benzimidazole-5-carboxamide], the IC50 was found to be 25 nM.

`COc1cc(C(=O)N2C[C@H](N)[C@@H]3CC[C@H]2C3)cc2nc(-c3cc4ccc5nc4n3CCCCCc3nc(Cl)ccc3C(=O)NC5(C)C)n(C)c12` [Example 932, 17-[5-[(1~{S},4~{R},5~{R})-4-amino-2-azabicyclo[3.2.1]octane-2-carbonyl]-7-methoxy-1-methyl-benzimidazol-2-yl]-8-chloro-2,2-dimethyl-3,9,16,22-tetrazatetracyclo[14.5.2.0^ {5,10}.0^{19,23}]tricosa-1(21),5(10),6,8,17,19,22-heptaen-4-one]: the 50% inhibitory concentration (IC50) came out at 58 nM.

As to `COc1cc(C(=O)N2CCC[C@@H](N)C2)cc2nc(-c3cc4ccc5nc4n3CCCCCc3ccccc3C(=O)N[C@@H]5C)n(C)c12` [Example 28, (2~{R})-17-[5-[(3~{R})-3-aminopiperidine-1-carbonyl]-7-methoxy-1-methyl-benzimidazol-2-yl]-2-methyl-3,16,22-triazatetracyclo[14.5.2.0^{5,10}.0^{19,23}] tricosa-1(22),5,7,9,17,19(23),20-heptaen-4-one], the IC50 turned out to be 46 nM.

On to `COc1cc(C(=O)N2CC[C@@H](OC)[C@@H](N)C2)cc2nc(-c3cc4ccc5nc4n3CC(F)(F)CCCOC(C)(C)C(=O)N[C@@H]5C)n(C)c12` [Example 588, (11~{R})-17-[5-[(3~{S},4~ {R})-3-amino-4-methoxy-piperidine-1-carbonyl]-7-methoxy-1-methyl-benzimidazol-2-yl]-3,3-difluoro-8,8,11-trimethyl-7-oxa-1,10,19-triazatricyclo[10.5.2.0^ {15,18}]nonadeca-12(19),13,15(18), 16-tetraen-9-one], for which the IC50 was found to be 193 nM.

As to `COc1cc(C(=O)N2CC[C@@H]3OCCN[C@@H]3C2)cc2nc(-c3cc4ccc5nc4n3C[C@H]3C[C@H]3COCCC(=O)N[C@@H]5C)n(C)c12` (single isomer, unassigned) [Example 246, (3˜{S},5˜{R},12˜{R})-18-[5-[(4˜{a}˜{R},8˜{a}˜{S})-2,3,4,4˜{a},5,7,8,8˜{a}-octahydropyrido[4,3-b][1,4]oxazine-6-carbonyl]-7-methoxy-1-methyl-benzimidazol-2-yl]-12-methyl-7-oxa-1,11,20-triazatetracyclo[11.5.2.0^{3,5}.0^{16,19}]icosa-13(20),14,16(19),17-tetraen-10-one], the IC50 was found to be 3320 nM.

One may read the IC50 as the concentration that inhibits the measured activity by half.
